In brackets after ≈: the same amount, converted by molar mass. Read-outs that look alike come from different tables or passages of the source.
Experiments:
Format in all cases: cell-based
[1] = tested on: Bifidobacterium infantis subsp. Infantis ATCC 15702; assay: MIC, agar dilution drug sensitivity test; conditions: ATCC15702, Table 1
[2] = tested on: Bacteroides bifidum ATCC 1569; assay: MIC, agar dilution drug sensitivity test; conditions: ATCC1569, Table 1
[3] = tested on: Clostridium difficile ATCC 700057; assay: MIC, agar dilution drug sensitivity test; conditions: Clostridioides difficile, ATCC700057
[4] = tested on: Clostridium perfringens ATCC 13124; assay: microbe, parasite or virus in culture; conditions: ATCC13124
[5] = tested on: Eggerthella lenta ATCC 43055; assay: MIC, agar dilution drug sensitivity test; conditions: ATCC43055, Table 1
[6] = tested on: Fusobacterium necrophorum ATCC 25286; assay: MIC, agar dilution drug sensitivity test; conditions: ATCC25286, Table 1
[7] = tested on: Peptostreptococcus prevotii ATCC 9321; assay: MIC, agar dilution drug sensitivity test; conditions: Anaerococcus prevotii, ATCC9321, Table 1
[8] = tested on: Bordetella avium ATCC 6945; assay: MIC, agar dilution drug sensitivity test
[9] = tested on: Serratia marcescens ATCC 43862; assay: MIC, agar dilution drug sensitivity test
[10] = tested on: Proteus vulgaris ATCC 1331; assay: MIC, agar dilution drug sensitivity test
[11] = tested on: Enterobacter aerogenes ATCC 13048; assay: MIC, agar dilution drug sensitivity test
[12] = tested on: Haemophilus influenzae ATCC 49247; assay: MIC, microscale broth dilution drug sensitivity test
Description: (§1) In this embodiment, compound I-rifamycin-quinolizidone dual-action molecule is used in a drug sensitivity test on pathogenic bacteria associated with hepatic encephalopathy, the pathogenic bacteria including the above ammonia-producing bacteria. Except that Haemophilus is tested using the microscale broth dilution method, all the other bacteria are tested using the agar dilution method consistent with that in the Guideline of the Clinical and Laboratory Standards Institute (CLSI; 1-3). All the other drug susceptibility tests are performed under anaerobic conditions except that some selective isolates are tested under both aerobic and anaerobic conditions. Control compounds include metronidazole, rifampicin, clindamycin (under anaerobic conditions) and ciprofloxacin (under aerobic and anaerobic conditions). The tested clinical isolates may be reference strains obtained from American Type Culture Collection, ATCC, Manassas, Va. After being received, the strains are respectively inoculated on appropriate agar plates and placed under optimized conditions for growth. The growing strains are cloned in the broth containing cryoprotectant to prepare bacterial suspensions, and the bacterial suspensions are subpackaged and then stored in freezing at −80° C. Before test, the frozen bacteria are inoculated into appropriate agar dishes and cultured for growth. Anaerobic bacteria grow for 48 hours at 35° C. in a Bactron II oxygen-free cabinet (Shel Lab, Cornelius, Oreg.) before test. Haemophilus Test Medium (HTM, Teknova, Hollister, Calif.; Art. No.: 895120) is used to perform drug sensitivity test on Hemophilus using the microscale broth dilution method under aerobic and anaerobic conditions. Preparation and storage of all the above broths are performed in accordance with CLSI (1-3).

[13] = tested on: Haemophilus parainfluenzae ATCC 49247; assay: as above; conditions: ATCC49247
Description: as §1

[14] = tested on: Streptococcus parasanguinis MMX 5671; assay: MIC, agar dilution drug sensitivity test
[15] = tested on: Streptococcus salivarius ATCC 25975; assay: MIC, agar dilution drug sensitivity test
[16] = tested on: Streptococcus pneumoniae ATCC 49619; assay: MIC, agar dilution drug sensitivity test
[17] = tested on: Actinomyces naeslundii JMI 534283; assay: MIC, agar dilution drug sensitivity test; conditions: JMI534283, Aerobic
[18] = tested on: Alcaligenes faecalis JMI 940880; assay: MIC, agar dilution drug sensitivity test; conditions: JMI940880, Aerobic
[19] = tested on: Bacteroides vulgatus JMI 927011; assay: MIC, agar dilution drug sensitivity test; conditions: Phocaeicola vulgatus, JMI927011
[20] = tested on: Corynebacterium urealyticum JMI 2015_30; assay: MIC, agar dilution drug sensitivity test; conditions: Aerobic
[21] = tested on: Staphylococcus saprophyticus JMI 2016_703; assay: MIC, agar dilution drug sensitivity test; conditions: Aerobic
[22] = tested on: Escherichia coli ATCC 25922; assay: MIC, agar dilution drug sensitivity test; conditions: ATCC25922, Table 1
[23] = tested on: Helicobacter pylori ATCC 700824; assay: MIC, agar dilution drug sensitivity test; conditions: ATCC700824, Table 1
[24] = tested on: Lactobacillus salivarius JMI 941623; assay: MIC, agar dilution drug sensitivity test; conditions: Ligilactobacillus salivarius, JMI941623, Table 1
[25] = tested on: Klebsiella oxytoca JMI 933995; assay: MIC, agar dilution drug sensitivity test; conditions: JMI933995, Table 1
[26] = tested on: Morganella morganii MMX 6123; assay: MIC, agar dilution drug sensitivity test; conditions: MMX6123, Table 1
[27] = tested on: Proteus mirabilis JMI 933599; assay: MIC, agar dilution drug sensitivity test; conditions: JMI933599, Table 1
[28] = tested on: Proteus vulgaris MMX 6454; assay: MIC, agar dilution drug sensitivity test; conditions: MMX6454, Table 1
[29] = tested on: Salmonella spp ATCC 35987; assay: MIC, agar dilution drug sensitivity test; conditions: ATCC35987, Table 1
Description: In this embodiment, compound I-rifamycin-quinolizidone dual-action molecule is used in a drug sensitivity test on pathogenic bacteria associated with hepatic encephalopathy, the pathogenic bacteria including the above ammonia-producing bacteria. Except that Haemophilus is tested using the microscale broth dilution method, all the other bacteria are tested using the agar dilution method consistent with that in the Guideline of the Clinical and Laboratory Standards Institute (CLSI; 1-3). All the other drug susceptibility tests are performed under anaerobic conditions except that some selective isolates are tested under both aerobic and anaerobic conditions. Control compounds include metronidazole, rifampicin, clindamycin (under anaerobic conditions) and ciprofloxacin (under aerobic and anaerobic conditions).
The tested clinical isolates may be reference strains obtained from American Type Culture Collection, ATCC, Manassas, Va. After being received, the strains are respectively inoculated on appropriate agar plates and placed under optimized conditions for growth. The growing strains are cloned in the broth containing cryoprotectant to prepare bacterial suspensions, and the bacterial suspensions are subpackaged and then stored in freezing at −80° C. Before test, the frozen bacteria are inoculated into appropriate agar dishes and cultured for growth. Anaerobic bacteria grow for 48 hours at 35° C. in a Bactron II oxygen-free cabinet (Shel Lab, Cornelius, Oreg.) before test. […]
The Minimum Inhibitory Concentration (MIC) is determined using the agar dilution method.
The MIC values of all microorganisms except Haemophilus are determined using the agar dilution method in the CLSI (1-2). […] After culturing, the MIC is determined in accordance with the CLSI guideline (1-2).

[30] = tested on: Yersinia enterocolitica ATCC 23715; assay: MIC, agar dilution drug sensitivity test; conditions: ATCC23715, Table 1
[31] = ATCC49247, Haemophilus influenzae ATCC 49247, Aerobic
[32] = ATCC49247, Haemophilus influenzae ATCC 49247, Anaerobic

Cc1ncc([N+](=O)[O-])n1CCO [Metronidazole, metronidazole]
MIC [1]: 16 µg/mL (≈ 93.5 µM)
MIC [2]: 8 µg/mL (≈ 46.7 µM)
MIC [3]: 0.5 µg/mL (≈ 2.92 µM)
MIC [4]: 2 µg/mL (≈ 11.7 µM)
MIC [5]: 1 µg/mL (≈ 5.84 µM)
MIC [6]: 0.12 µg/mL (≈ 0.701 µM)
MIC [7]: 256 µg/mL (≈ 1500 µM)
MIC ([8]; Bordetella avium ATCC 6945, Anaerobic): >256 µg/mL
MIC ([8]; Bordetella avium, ATCC6945): > 256 µg/mL
MIC ([9]; Serratia marcescens ATCC 43862, Anaerobic): >256 µg/mL
MIC ([9]; Serratia marcescens, ATCC43862): > 256 µg/mL
MIC ([10]; Proteus vulgaris ATCC 1331, Anaerobic): >256 µg/mL
MIC ([10]; Proteus vulgaris, ATCC1331): > 256 µg/mL
MIC ([11]; Enterobacter aerogenes ATCC 13048, Anaerobic): >256 µg/mL
MIC ([11]; Klebsiella aerogenes, ATCC13048): > 256 µg/mL
MIC [12, 31]: 64 µg/mL (≈ 374 µM)
MIC [12, 32]: 64 µg/mL (≈ 374 µM)
MIC ([13]; Haemophilus parainfluenzae): 128 µg/mL (≈ 748 µM)
MIC ([14]; Streptococcus parasanguinis MMX 5671, Anaerobic): >256 µg/mL
MIC ([14]; Streptococcus parasanguinis, MMX5671): > 256 µg/mL
MIC ([15]; Streptococcus salivarius ATCC 25975, Anaerobic): >256 µg/mL
MIC ([15]; Streptococcus salivarius, ATCC25975): > 256 µg/mL
MIC ([16]; ATCC49619, Streptococcus pneumoniae ATCC 49619, Aerobic): > 256 µg/mL
MIC ([16]; ATCC49619, Streptococcus pneumoniae ATCC 49619, Anaerobic): 128 µg/mL (≈ 748 µM)

CO[C@H]1/C=C/O[C@@]2(C)Oc3c(C)c(O)c4c(O)c(c(/C=N/N5CCN(C)CC5)c(O)c4c3C2=O)NC(=O)/C(C)=C\C=C\[C@H](C)[C@H](O)[C@@H](C)[C@@H](O)[C@@H](C)[C@H](OC(C)=O)[C@@H]1C [Rifampicin, rifampicin]
MIC [17]: < 0.002 µg/mL
MIC [18]: 16 µg/mL (≈ 19.4 µM)
MIC [19]: 0.06 µg/mL (≈ 0.0729 µM)
MIC ([8]; Bordetella avium, ATCC6945, Bordetella avium ATCC 6945, Aerobic, read-out: MIC): 16 µg/mL (≈ 19.4 µM)
MIC ([8]; Bordetella avium, ATCC6945, Bordetella avium ATCC 6945, Anaerobic, read-out: MIC): 64 µg/mL (≈ 77.8 µM)
MIC [20]: 0.004 µg/mL (≈ 0.00486 µM)
MIC ([9]; Serratia marcescens, ATCC43862, Serratia marcescens ATCC 43862, Aerobic, read-out: MIC): 64 µg/mL (≈ 77.8 µM)
MIC ([9]; Serratia marcescens, ATCC43862, Serratia marcescens ATCC 43862, Anaerobic, read-out: MIC): 64 µg/mL (≈ 77.8 µM)
MIC ([10]; Proteus vulgaris, ATCC1331, Proteus vulgaris ATCC 1331, Aerobic, read-out: MIC): 16 µg/mL (≈ 19.4 µM)
MIC ([10]; Proteus vulgaris, ATCC1331, Proteus vulgaris ATCC 1331, Anaerobic, read-out: MIC): 8 µg/mL (≈ 9.72 µM)
MIC ([11]; Klebsiella aerogenes, ATCC13048, Enterobacter aerogenes ATCC 13048, Aerobic, read-out: MIC): 64 µg/mL (≈ 77.8 µM)
MIC ([11]; Klebsiella aerogenes, ATCC13048, Enterobacter aerogenes ATCC 13048, Anaerobic, read-out: MIC): 64 µg/mL (≈ 77.8 µM)
MIC [12, 31]: 0.25 to 1 µg/mL (≈ 0.304 to 1.22 µM)
MIC [12, 32]: 0.25 µg/mL (≈ 0.304 µM)
MIC ([13]; Haemophilus parainfluenzae ATCC 49247, Aerobic, read-out: MIC): 0.5 µg/mL (≈ 0.608 µM)
MIC [21]: 1 µg/mL (≈ 1.22 µM)
MIC ([14]; Streptococcus parasanguinis, MMX5671, Streptococcus parasanguinis MMX 5671, Aerobic, read-out: MIC): 0.03 µg/mL (≈ 0.0365 µM)
MIC ([14]; Streptococcus parasanguinis, MMX5671, Streptococcus parasanguinis MMX 5671, Anaerobic, read-out: MIC): 16 µg/mL (≈ 19.4 µM)
MIC ([15]; Streptococcus salivarius, ATCC25975, Streptococcus salivarius ATCC 25975, Aerobic, read-out: MIC): 0.03 µg/mL (≈ 0.0365 µM)
MIC ([15]; Streptococcus salivarius, ATCC25975, Streptococcus salivarius ATCC 25975, Anaerobic, read-out: MIC): 32 µg/mL (≈ 38.9 µM)
MIC ([16]; ATCC49619, Streptococcus pneumoniae ATCC 49619, Aerobic, read-out: MIC): 0.03 µg/mL (≈ 0.0365 µM)
MIC ([16]; ATCC49619, Streptococcus pneumoniae ATCC 49619, Anaerobic, read-out: MIC): 0.12 µg/mL (≈ 0.146 µM)

CO[C@H]1/C=C/O[C@@]2(C)Oc3c(C)c(O)c4c(O)c(c5c(nc6cc(C)ccn65)c4c3C2=O)NC(=O)/C(C)=C\C=C\[C@H](C)[C@H](O)[C@@H](C)[C@@H](O)[C@@H](C)[C@H](OC(C)=O)[C@@H]1C [Rifaximin, rifaximin]
MIC [1]: 0.25 µg/mL (≈ 0.318 µM)
MIC [2]: 0.5 µg/mL (≈ 0.636 µM)
MIC [3]: 0.004 µg/mL (≈ 0.00509 µM)
MIC [4]: 0.12 µg/mL (≈ 0.153 µM)
MIC [5]: 0.12 µg/mL (≈ 0.153 µM)
MIC [6]: 16 µg/mL (≈ 20.4 µM)
MIC [22]: 8 µg/mL (≈ 10.2 µM)
MIC [23]: 2 µg/mL (≈ 2.54 µM)
MIC [24]: 1 µg/mL (≈ 1.27 µM)
MIC [7]: 0.03 µg/mL (≈ 0.0382 µM)
MIC [25]: 32 µg/mL (≈ 40.7 µM)
MIC [26]: 16 µg/mL (≈ 20.4 µM)
MIC [27]: 8 µg/mL (≈ 10.2 µM)
MIC [28]: 4 µg/mL (≈ 5.09 µM)
MIC [29]: 16 µg/mL (≈ 20.4 µM)
MIC [30]: 8 µg/mL (≈ 10.2 µM)
